In patent US7119102B2, “Substituted 3-amino-thieno[2,3-b]pyridine-2-carboxylic acid amide compounds and processes for preparing and their uses” (Boehringer Ingelheim Pharmaceuticals, Inc., priority 2003, dated 2006):

SMILES | melting point
NC(=O)c1sc2nc(N3CCC(NCC(O)c4cccnc4)CC3)cc(C(F)(F)F)c2c1N (centres unmarked) [Example 9, 3-Amino-6-[4-(2-hydroxy-2-pyridin-3-yl-ethylamino)-piperidin-1-yl]-4-trifluoromethyl-thieno[2,3-b]pyridine-2-carboxylic acid amide] | 179 to 181 °C
NC(=O)c1sc2nc(N3CCC(NC[C@@H](O)c4ccccn4)CC3)cc(C(F)(F)F)c2c1N [Example 22, 3-Amino-6-[4-((R)-2-hydroxy-2-pyridin-2-yl-ethylamino)-piperidin-1-yl]-4-trifluoromethyl-thieno[2,3-b]pyridine-2-carboxylic acid amide] | 165 to 167 °C

Results, then the compound that gave them:

melting point | SMILES
213 to 216 °C | CCCc1cc(N2CCC(NCC(O)c3cnc4ccccc4c3)CC2)nc2sc(C(N)=O)c(N)c12 (centres unmarked) [Example 8, 3-Amino-6-[4-(2-hydroxy-2-quinolin-3-yl-ethylamino)-piperidin-1-yl]-4-propyl-thieno[2,3-b]pyridine-2-carboxylic acid amide]
198 to 201 °C | NC(=O)c1sc2nc(N3CCC(NCC(O)c4ccc5ccccc5n4)CC3)cc(C(F)(F)F)c2c1N (centres unmarked) [Example 10, 3-Amino-6-[4-(2-hydroxy-2-quinolin-2-yl-ethylamino)-piperidin-1-yl]-4-trifluoromethyl-thieno[2,3-b]pyridine-2-carboxylic acid amide]
213 to 215 °C (dec.) | CCCc1cc(N2CCC(NCC(O)c3cc4ccccc4cn3)CC2)nc2sc(C(N)=O)c(N)c12 (centres unmarked) [Example 11, 3-Amino-6-[4-(2-hydroxy-2-isoquinolin-3-yl-ethylamino)-piperidin-1-yl]-4-propyl-thieno[2,3-b]pyridine-2-carboxylic acid amide]
